According to patent US20070259849A1, “Azine-Carboxamides as Anti-Cancer Agents” (ASTRAZENECA AB, priority 2004, published 2007):

Molecular target: T1, human recombinant, purified wild type His-B-Raf protein kinase (Homo sapiens, UniProt P15056)
T1 construct: His
Test: B-Raf In Vitro ELISA Assay
Type: biochemical
Conditions: phosphorylation of MEK1 (0.15 μM) by 2.5 nM B-Raf, 10 μM ATP, 1 hour preincubation at 25° C.
Experimental: B-Raf In Vitro ELISA Assay
Activity of human recombinant, purified wild type His-B-Raf protein kinase was determined in vitro using an enzyme-linked immunosorbent assay (ELISA) assay format, which measures phosphorylation of the B-Raf substrate, human recombinant, purified His-derived (detagged) MEK1. The reaction utilized 2.5 nM B-Raf, 0.15 μM MEK1 and 10 μM adenosine triphosphate (ATP) in 40 mM N-(2-hydroxyethyl)piperazine-N′-(2-ethanesulfonic acid hemisodium salt (HEPES), 5 mM 1,4-dithio-DL-threitol (DTT), 10 mM MgCl2, 1 mM ethylenediaminetetraacetic acid (EDTA) and 0.2 M NaCl (1×HEPES buffer), with or without compound at various concentrations, in a total reaction volume of 25 μl in 384 well plates. B-Raf and compound were preincubated in 1×HEPES buffer for 1 hour at 25° C. Reactions were initiated with addition of MEK1 and ATP in 1×HEPES buffer and incubated at 25° C. for 50 minutes and reactions stopped by addition of 10 μl 175 mM EDTA (final concentration 50 mM) in 1× HEPES buffer. 5 μl of the assay mix was then diluted 1:20 into 50 mM EDTA in 1×HEPES buffer, transferred to 384 well black high protein binding plates and incubated overnight at 4° C. Plates were washed in tris buffered saline containing 0.1% Tween20 (TBST), blocked with 50 μl Superblock (Pierce) for 1 hour at 25° C., washed in TBST, incubated with 50 μl rabbit polyclonal anti-phospho-MEK antibody (Cell Signaling) diluted 1:1000 in TBS for 2 hours at 25° C., washed with TBST, incubated with 50 μl goat anti-rabbit horseradish peroxidase-linked antibody (Cell Signaling) diluted 1:2000 in TBS for 1 hour at 25° C. and washed with TBST. 50 μl of fluorogenic peroxidase substrate (Quantablu—Pierce) was added and following incubation for 45-60 minutes, 50 μl QuantabluSTOP (Pierce) was added. Blue fluorescent product was detected at excitation 325 and emission 420 using a TECAN Ultra plate reader. Data was graphed and IC50s calculated using Excel Fit (Microsoft).

T1 sequence (P15056 whole entry): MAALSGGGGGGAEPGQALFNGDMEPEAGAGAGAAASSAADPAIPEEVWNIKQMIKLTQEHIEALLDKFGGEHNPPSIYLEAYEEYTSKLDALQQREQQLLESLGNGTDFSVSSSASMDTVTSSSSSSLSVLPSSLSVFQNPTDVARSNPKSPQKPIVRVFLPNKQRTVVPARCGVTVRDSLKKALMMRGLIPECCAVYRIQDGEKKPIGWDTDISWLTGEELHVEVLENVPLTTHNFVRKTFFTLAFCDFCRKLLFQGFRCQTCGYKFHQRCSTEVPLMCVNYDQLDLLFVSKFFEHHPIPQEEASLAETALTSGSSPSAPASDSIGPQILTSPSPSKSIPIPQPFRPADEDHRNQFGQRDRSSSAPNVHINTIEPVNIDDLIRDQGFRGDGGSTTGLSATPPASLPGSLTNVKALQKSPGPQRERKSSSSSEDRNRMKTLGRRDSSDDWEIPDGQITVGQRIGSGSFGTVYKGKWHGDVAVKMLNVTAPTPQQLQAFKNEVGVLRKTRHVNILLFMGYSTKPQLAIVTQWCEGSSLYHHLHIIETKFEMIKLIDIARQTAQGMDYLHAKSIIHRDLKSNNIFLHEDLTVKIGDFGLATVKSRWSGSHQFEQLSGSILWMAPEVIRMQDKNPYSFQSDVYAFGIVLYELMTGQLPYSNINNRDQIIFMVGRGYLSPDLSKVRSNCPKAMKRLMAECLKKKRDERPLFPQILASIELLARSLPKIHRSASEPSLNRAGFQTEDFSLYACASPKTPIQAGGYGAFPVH

IC50 [nM] | SMILES
800 | Cc1cc(C(=O)Nc2cc(NC(=O)c3cccc(C(F)(F)F)c3)ccc2C)nc(N2CCN(C)CC2)n1 [Example 49, N^1-(3-Trifluoromethylbenzoyl)-N^3-[2-(4-methylpiperazin-1-yl)-4-methylpyrimidin-6-ylcarbonyl]-4-methylbenzene-1,3-diamine]
5700 | Cc1cc(C(=O)Nc2cc(NC(=O)c3cccc(C(C)(C)C#N)c3)ccc2C)nc(N2CCCCC2)n1 [Example 1, N^1-[3-(1-Cyano-1-methylethyl)benzoyl]-N^3-[2-(piperidin-1-yl)-4-methylpyrimidin-6-ylcarbonyl]-4-methylbenzene-1,3-diamine]
600 | Cc1cc(C(=O)Nc2cc(NC(=O)c3cccc(C(C)(C)C#N)c3)ccc2C)nc(N2CCOCC2)n1 [Example 7, N^1-[3-(1-Cyano-1-methylethyl)benzoyl]-N^3-[2-(morpholino)-4-methylpyrimidin-6-ylcarbonyl]-4-methylbenzene-1,3-diamine]
